Structures can show the parent of a compound that is named as a salt.

What is called IC50 is the point on the concentration scale where inhibition reaches its midpoint.

This assay concerns IL-2 secretion by Jurkat T cells. Briefly: Inhibition of IL-2 secretion (PHA-stimulated Jurkat T cells, ELISA). Type of assay: cell-based. Particulars: Homo sapiens, 20 to 24 hours. How it is done:
The CRAC channel modulatory activity of the compounds were thus evaluated by measuring the secretion of IL-2 by antigen stimulated T-cells in vitro. Alternatively, such activity can also be evaluated by assay methods known to one skilled in the art.
Inhibition of IL-2 secretion: Jurkat T cells were seeded at a density of 0.5 to 1 million cells per well in RPMI medium. Test compounds from this invention were added to the cells at different concentrations. This was followed by the addition of PHA, a T cell mitogen after 10 minutes. The cells were then incubated for 20 to 24 hours in a CO2 incubator at 37° C. After incubation with the compounds, cells were centrifuged; the supernatant was collected and processed for ELISA to quantitate the amount of IL-2 secreted. A commercial ELISA kit (R&D Systems, Inc. Minneapolis, Minn., USA) was used to estimate the IL-2 concentrations. Amount of IL-2 secreted by cells stimulated with PHA was considered as a 100% maximal signal and the decrease in amount of IL-2 secreted by cells treated with the test compounds was expressed as percent inhibition of the maximal signal. The dose response data was analyzed using 4-parametric sigmoidal dose response (variable slope) curve-fit.

Take `Cc1cc2c(cc1-c1ccc(NC(=O)c3c(F)cccc3F)cc1)OC(C)(C)CC2N(C)C` (stereo not drawn) [Example 62, N-(4-(4-(Dimethylamino)-2,2,6-trimethylchroman-7-yl)phenyl)-2,6-difluorobenzamide]: the IC50 was in the range of 50 to 100 nM.

As for `Cc1cc2c(cc1-c1ccc(C(=O)Nc3c(F)cncc3F)cc1)OC1(CCC1)CC2=O` [Example 64, N-(3,5-Difluoropyridin-4-yl)-4-(6-methyl-4-oxospiro[chroman-2,1′-cyclobutan]-7-yl)benzamide], the IC50 was under 25 nM.

Take `Cc1cc2c(cc1-c1ccc(C(=O)Nc3c(F)cncc3F)cc1)OC1(CCC1)CC2` [Example 66, N-(3,5-Difluoropyridin-4-yl)-4-(6-methylspiro[chroman-2,1′-cyclobutan]-7-yl)benzamide]: the IC50 is under 25 nM.

The molecule `Cc1cc2c(cc1-c1ccc(C(=O)Nc3c(Cl)cncc3Cl)cc1)OC1(CCC1)CC2` [Example 67, N-(3,5-Dichloropyridin-4-yl)-4-(6-methylspiro[chroman-2,1′-cyclobutan]-7-yl)benzamide] gave an IC50 of 25 to 50 nM.

With `O=C(Nc1ccc(C2=CC3(CCC3)Oc3ccccc32)cc1)c1c(F)cccc1F` [Example 68, 2,6-Difluoro-N-(4-(spiro[chromene-2,1′-cyclobutan]-4-yl)phenyl)benzamide], the IC50 was under 25 nM.

Molecule `O=C(Nc1ccc(C2CC3(CCC3)Oc3ccccc32)cc1)c1c(F)cccc1F` (stereo not drawn) [Example 69, 2,6-Difluoro-N-(4-(spiro[chroman-2,1′-cyclobutan]-4-yl)phenyl)benzamide] displayed an IC50 of 100 to 500 nM.

`O=C(Nc1ccc(C2=CC3(CCC3)Oc3ccccc32)cn1)c1c(F)cccc1F` [Example 72, 2,6-Difluoro-N-(5-(spiro[chromene-2,1′-cyclobutan]-4-yl)pyridin-2-yl)benzamide] displayed an IC50 of 25 to 50 nM.

`Cc1ccc2c(c1)C(c1ccc(NC(=O)c3c(F)cccc3F)cc1)=CC1(CCC1)O2` [Example 75, 2,6-Difluoro-N-(4-(6-methylspiro[chromene-2,l′-cyclobutan]-4-yl)phenyl)benzamide] displayed an IC50 of under 25 nM.

`Cc1ccc2c(c1)C(c1cnc(NC(=O)c3c(F)cccc3F)cn1)=CC1(CCC1)O2` [Example 76, 2,6-Difluoro-N-(5-(6-methylspiro[chromene-2,1′-cyclobutan]-4-yl)pyrazin-2-yl)benzamide] registered an IC50 of 50 to 100 nM.

`Cc1ccc2c(c1)OC1(C=C2c2ccc(NC(=O)c3c(F)cccc3F)cc2)CCC1` [Example 77, 2,6-Difluoro-N-(4-(7-methylspiro[chromene-2,1′-cyclobutan]-4-yl)phenyl)benzamide] had an IC50 of 50 to 100 nM.

For `CC1(C)C=C(c2ccc(NC(=O)c3c(F)cccc3F)cc2)c2ccccc2O1` [Example 79, N-(4-(2,2-Dimethyl-2H-chromen-4-yl)phenyl)-2,6-difluorobenzamide], the IC50 was in the range of 25 to 50 nM.

`CC1(C)CC(c2ccc(NC(=O)c3c(F)cccc3F)cc2)c2ccccc2O1` (stereo not drawn) [Example 80, N-(4-(2,2-Dimethylchroman-4-yl)phenyl)-2,6-difluorobenzamide] showed a half-inhibitory concentration (IC50) of 100 to 500 nM.

The molecule `CC1(C)C=C(c2cnc(NC(=O)c3c(F)cccc3F)cn2)c2ccccc2O1` [Example 81, N-(5-(2,2-Dimethyl-2H-chromen-4-yl)pyrazin-2-yl)-2,6-difluorobenzamide] yielded an IC50 of 50 to 100 nM.

In turn, `Cc1ccc2c(c1)OC(C)(C)C=C2c1ccc(NC(=O)c2c(F)cccc2F)cc1` [Example 87, 2,6-Difluoro-N-(4-(2,2,7-trimethyl-2H-chromen-4-yl)phenyl)benzamide] came in with an IC50 of 50 to 100 nM.

Take `Cc1cccc2c1OC(C)(C)C=C2c1cnc(NC(=O)c2c(F)cccc2F)cn1` [Example 89, 2,6-Difluoro-N-(5-(2,2,8-trimethyl-2H-chromen-4-yl)pyrazin-2-yl)benzamide]: the IC50 is under 25 nM.

`COCC1(C)C=C(c2ccc(NC(=O)c3c(F)cccc3F)cc2)c2ccccc2O1` (stereo not drawn) [Example 90] came in with an IC50 of 25 to 50 nM.

In turn, `COCC1(C)C=C(c2ccc(NC(=O)c3c(F)cccc3F)cc2)c2cc(C)ccc2O1` (stereo not drawn) [Example 91] returned an IC50 of 25 to 50 nM.

Molecule `CC1(CO)C=C(c2ccc(NC(=O)c3c(F)cccc3F)cc2)c2ccccc2O1` (stereo not drawn) [Example 93, 2,6-Difluoro-N-(4-(2-(hydroxymethyl)-2-methyl-2H-chromen-4-yl)phenyl)benzamide] gave an IC50 of 50 to 100 nM.

As to `Cc1ccc2c(c1)C(c1ccc(NC(=O)c3c(F)cccc3F)cc1)=CC(C)(CO)O2` (stereo not drawn) [Example 95, 2,6-Difluoro-N-(4-(2-(hydroxymethyl)-2,6-dimethyl-2H-chromen-4-yl)phenyl)benzamide], the IC50 lay in the range of 50 to 100 nM.

For `Cc1cccc2c1OC(C)(C)C=C2c1ccc(NC(=O)c2c(F)cccc2F)nc1` [Example 98, 2,6-Difluoro-N(5-(2,2,8-trimethyl-2H-chromen-4-yl)pyridin-2-yl)benzamide], the IC50 is 25 to 50 nM.

`Cc1cccc2c1OC1(C=C2c2cnc(NC(=O)c3c(F)cccc3F)cn2)CCC1` [Example 100, 2,6-Difluoro-N-(5-(8-methylspiro[chromene-2,1′-cyclobutan]-4-yl)pyrazin-2-yl)benzamide] came in with an IC50 of under 25 nM.

In turn, `Cc1cccc2c1OC1(C=C2c2ccc(NC(=O)c3c(F)cccc3F)nc2)CCC1` [Example 101, 2,6-Difluoro-N-(5-(8-methylspiro[chromene-2,1′-cyclobutan]-4-yl)pyridin-2-yl)benzamide] yielded a half-inhibitory concentration (IC50) of under 25 nM.

The molecule `Cc1cccc2c1OC1(C=C2c2ccc(NC(=O)c3c(F)cccc3F)cn2)CCC1` [Example 102, 2,6-Difluoro-N(6-(8-methylspiro[chromene-2,1′-cyclobutan]-4-yl)pyridin-3-yl)benzamide] displayed an IC50 of 25 to 50 nM.

`COCC1(C)C=C(c2cnc(NC(=O)c3c(F)cccc3F)cn2)c2cccc(C)c2O1` (stereo not drawn) [Example 103, 2,6-Difluoro-N-(5-(2-(methoxymethyl)-2,8-dimethyl-2H-chromen-4-yl)pyrazin-2-yl)benzamide] came in with an IC50 of under 25 nM.

With `COCC1(C)C=C(c2ccc(NC(=O)c3c(F)cccc3F)nc2)c2cccc(C)c2O1` (stereo not drawn) [Example 104, 2,6-Difluoro-N-(5-(2-(methoxymethyl)-2,8-dimethyl-2H-chromen-4-yl)pyridin-2-yl)benzamide], the IC50 is under 25 nM.

`COCC1(C)C=C(c2ccc(NC(=O)c3c(F)cccc3F)cn2)c2cccc(C)c2O1` (stereo not drawn) [Example 105, 2,6-Difluoro-N-(6-(2-(methoxymethyl)-2,8-dimethyl-2H-chromen-4-yl)pyridin-3-yl)benzamide] registered an IC50 of 100 to 500 nM.

Take `Cc1ccc2c(c1)C(c1ccc(NC(=O)c3c(F)cccc3F)nc1)=CC1(CCC1)O2` [Example 106, 2,6-Difluoro-N-(5-(6-methylspiro[chromene-2,1′-cyclobutan]-4-yl)pyridin-2-yl)benzamide]: the IC50 lay in the range of 100 to 500 nM.

Turning to `CC1(C)C=C(c2ccc(NC(=O)c3c(F)cccc3F)nc2)c2ccccc2O1` [Example 108, N-(5-(2,2-Dimethyl-2H-chromen-4-yl)pyridin-2-yl)-2,6-difluorobenzamide], the IC50 was 25 to 50 nM.

In the case of `Cc1ccc2c(c1)OC1(C=C2c2ccc(NC(=O)c3c(F)cccc3F)nc2)CCC1` [Example 109, 2,6-Difluoro-N-(5-(7-methylspiro[chromene-2,1′-cyclobutan]-4-yl)pyridin-2-yl)benzamide], the IC50 lay in the range of 100 to 500 nM.

`Cc1cccc2c1OC1(C=C2c2ccc(C(=O)Nc3c(F)cncc3F)cc2)CCC1` [Example 111, N-(3,5-Difluoropyridin-4-yl)-4-(8-methylspiro[chromene-2,1′-cyclobutan]-4-yl)benzamide] showed an IC50 of 25 to 50 nM.

Consider `Cc1cc2c(cc1-c1cnc(NC(=O)c3c(F)cccc3F)cn1)OC(C)(CO)CC2` (stereo not drawn) [Example 114, 2,6-Difluoro-N-(5-(2-(hydroxymethyl)-2,6-dimethylchroman-7-yl)pyrazin-2-yl)benzamide], for which the IC50 was 25 to 50 nM.

`Cc1cc2c(cc1-c1ccc(C(=O)Nc3c(F)cccc3F)cc1)OC1(CCC1)CC2` [Example 116, N-(2,6-Difluorophenyl)-4-(6-methylspiro[chroman-2,1′-cyclobutan]-7-yl)benzamide] came in with a 50% inhibitory concentration (IC50) of 25 to 50 nM.

The molecule `Cc1cc2c(cc1-c1ccc(NC(=O)c3c(F)cccc3F)cc1)OC1(CNC1)CC2=O` [Example 120, 2,6-Difluoro-N-(4-(6′-methyl-4′-oxospiro[azetidine-3,2′-chroman]-7′-yl)phenyl)benzamide hydrochloride] had an IC50 of 50 to 100 nM.

With `Cc1cc2c(cc1-c1ccc(NC(=O)c3c(F)cccc3F)cc1)OC1(CC2=O)CN(C)C1` [Example 121, N-(4-(1,6′-Dimethyl-4′-oxospiro[azetidine-3,2′-chroman]-7′-yl)phenyl)-2,6-difluorobenzamide], the IC50 fell in the range of 25 to 50 nM.

The molecule `Cc1cc2c(cc1-c1ccc(NC(=O)c3c(F)cccc3F)nc1)OC1(COC1)CC2=O` [Example 124, 2,6-Difluoro-N-(5-(6-methyl-4-oxospiro[chroman-2,3′-oxetan]-7-yl)pyridin-2-yl)benzamide] gave an IC50 of 25 to 50 nM.

`CCc1cc2c(cc1-c1ccc(NC(=O)c3c(F)cccc3F)cc1)OC1(COC1)CC2=O` [Example 125, N-(4-(6-Ethyl-4-oxospiro[chroman-2,3′-oxetan]-7-yl)phenyl)-2,6-difluorobenzamide] came in with an IC50 of under 25 nM.

Values taken from patent publication US9790231B2 (LUPIN LIMITED, priority 2013, dated 2017).
